# According to patent US6417211B1, “Isothiazolone concentrates” (Rohm and Haas Company, priority 1999, dated 2002):
# Marks after values point to notes of the source that are not given here.
# What was measured:
# [1] = Physical stability of MI solutions on storage (homogeneity, clarity, crystallization, precipitation, phase separation); format: physicochemical
# Protocol: By “physically stable” we mean that the compositions are homogeneous and fluid at temperatures of 20 to 25° C. for at least 24 hours. Preferably the compositions are physically stable at 20° C. and below for at least 3 days, more preferably for at least 2 weeks, and most preferably for at least 4 weeks. In addition, it is desirable that the compositions retain their physical stability for similar time periods at temperatures of 15° C. and below, and preferably at 5° C. and below.
# Samples of technical grade 2-methyl-3-isothiazolone (MI) were used to prepare solutions of the NHITA in various solvents at different concentrations. […] Solutions were prepared by adding a weighed amount of molten MI (melted at about 55° C.) to a weighed amount of deionized water (or a solvent or a solvent-water mixture) in a 20-milliliter (ml) vial; the mixture was swirled and allowed to cool to room temperature. The prepared samples were allowed to stand at room temperature (20-25° C.) for 24 hours and then subjected to storage at cooler temperatures (5° C. and −17° C.) for at least 72 hours; observations were made at each condition to determine physical stability (homogeneity, clarity, crystallization, precipitation, phase separation). The samples were considered physically stable if no crystallization, phase separation or precipitation occurred; concentrations (or concentration ranges) at which the compositions were unstable are indicated by ** superscript, otherwise concentrations (ranges) listed were stable; results are summarized in Table I (concentrations are weight % MI).
# [2] = Chemical stability of MI solutions on storage (HPLC, % active ingredient remaining); format: physicochemical; conditions: ± 1-2%
# [3] = solvent DEC (diethyl carbonate), 20-25° C., 24 hours
# [4] = solvent DME (1,2-dimethoxyethane), 20-25° C., 24 hours
# [5] = solvent DMSO, 20-25° C., 24 hours
# [6] = solvent IPA (isopropanol), 5° C., at least 72 hours
# [7] = solvent MeOH, 5° C., at least 72 hours
# [8] = solvent PC (propylene carbonate), 20-25° C., 24 hours
# [9] = solvent PG (propylene glycol), 5° C., at least 72 hours
# [10] = solvent Water, 5° C., at least 72 hours
# [11] = solvent Water, 20-25° C., 24 hours
# [12] = solvent Water, −17° C., at least 72 hours
smiles,measurement,setting,value
"Cn1sccc1=O [MI, 2-Methyl-3-isothiazolone]",time solution remained stable,"[1]; 80% MI solution in water, 5° C.",at least 4 months
same,time solution remained stable,"[1]; 90% MI solution in water, 5° C.",at least 4 months
same,MI concentration physically stable,"[1]; solvent 50/50 MeOH/Water, 5° C., at least 72 hours",88 weight %
same,MI concentration physically stable,"[1]; solvent 50/50 MeOH/Water, 20-25° C., 24 hours",88 weight %
same,MI concentration physically unstable (crystal formation or insoluble),"[1]; solvent 50/50 MeOH/Water, −17° C., at least 72 hours",88** weight %
same,MI concentration physically unstable (crystal formation or insoluble),"[1]; solvent BEE (2-(2-butoxyethoxyl)ethanol), 5° C., at least 72 hours",68-88** weight %
same,MI concentration physically stable,"[1]; solvent BEE (2-(2-butoxyethoxyl)ethanol), 20-25° C., 24 hours",68-88 weight %
same,MI concentration physically unstable (crystal formation or insoluble),"[1]; solvent DEC (diethyl carbonate), 5° C., at least 72 hours",70** weight %
same,MI concentration physically stable,[1]; [3],70 weight %
same,MI concentration physically unstable (crystal formation or insoluble),[1]; [3],80-90 weight %
same,MI concentration physically unstable (crystal formation or insoluble),"[1]; solvent DME (1,2-dimethoxyethane), 5° C., at least 72 hours",70-80** weight %
same,MI concentration physically stable,[1]; [4],70-80 weight %
same,MI concentration physically unstable (crystal formation or insoluble),[1]; [4],90 weight %
same,MI concentration physically unstable (crystal formation or insoluble),"[1]; solvent DMSO, 5° C., at least 72 hours",70-80** weight %
same,MI concentration physically stable,[1]; [5],70-80 weight %
same,MI concentration physically unstable (crystal formation or insoluble),[1]; [5],90 weight %
same,MI concentration physically unstable (crystal formation or insoluble),"[1]; solvent DPG (dipropylene glycol), 5° C., at least 72 hours",75-90** weight %
same,MI concentration physically stable,"[1]; solvent DPG (dipropylene glycol), 20-25° C., 24 hours",75-90 weight %
same,MI concentration physically stable,[1]; [6],78 weight %
same,MI concentration physically unstable (crystal formation or insoluble),[1]; [6],88 weight %
same,MI concentration physically stable,"[1]; solvent IPA (isopropanol), 20-25° C., 24 hours",78-88 weight %
same,MI concentration physically unstable (crystal formation or insoluble),"[1]; solvent IPA (isopropanol), −17° C., at least 72 hours",78** weight %
same,MI concentration physically stable,[1]; [7],78 weight %
same,MI concentration physically unstable (crystal formation or insoluble),[1]; [7],88 weight %
same,MI concentration physically stable,"[1]; solvent MeOH, 20-25° C., 24 hours",78-88 weight %
same,MI concentration physically stable,"[1]; solvent MeOH, −17° C., at least 72 hours",78 weight %
same,MI concentration physically unstable (crystal formation or insoluble),"[1]; solvent PC (propylene carbonate), 5° C., at least 72 hours",69** weight %
same,MI concentration physically stable,[1]; [8],69 weight %
same,MI concentration physically unstable (crystal formation or insoluble),[1]; [8],80-90 weight %
same,MI concentration physically stable,[1]; [9],68 weight %
same,MI concentration physically unstable (crystal formation or insoluble),[1]; [9],78-88 weight %
same,MI concentration physically stable,"[1]; solvent PG (propylene glycol), 20-25° C., 24 hours",68-88 weight %
same,MI concentration physically stable,"[1]; solvent PG (propylene glycol), −17° C., at least 72 hours",68 weight %
same,MI concentration physically stable,[1]; [10],60-89.5 weight %
same,MI concentration physically unstable (crystal formation or insoluble),[1]; [10],90.5 weight %
same,MI concentration physically stable,[1]; [11],60-94.4 weight %
same,MI concentration physically unstable (crystal formation or insoluble),[1]; [11],95.4 weight %
same,MI concentration physically stable,[1]; [12],70-77 weight %
same,MI concentration physically unstable (crystal formation or insoluble),[1]; [12],88 weight %
same,MI concentration physically stable,"[1]; solvent φCH2OH (benzyl alcohol), 5° C., at least 72 hours",60 weight %
same,MI concentration physically stable,"[1]; solvent φCH2OH (benzyl alcohol), 20-25° C., 24 hours",60 weight %
same,MI concentration physically unstable (crystal formation or insoluble),"[1]; solvent φCH2OH (benzyl alcohol), −17° C., at least 72 hours",60** weight %
same,MI concentration physically stable,"[1]; solvent φOCH2CH2OH (phenoxyethanol), 5° C., at least 72 hours",60 weight %
same,MI concentration physically stable,"[1]; solvent φOCH2CH2OH (phenoxyethanol), 20-25° C., 24 hours",60 weight %
same,MI concentration physically unstable (crystal formation or insoluble),"[1]; solvent φOCH2CH2OH (phenoxyethanol), −17° C., at least 72 hours",60** weight %
same,% Active Ingredient (MI) Remaining,"[2]; initial MI concentration 68, PG, 40° C./11 days",100%
same,% Active Ingredient (MI) Remaining,"[2]; initial MI concentration 78, MeOH, 40° C./11 days",104%
same,% Active Ingredient (MI) Remaining,"[2]; initial MI concentration 85.8, Water, 55° C./4 weeks",97.1%
same,% Active Ingredient (MI) Remaining,"[2]; initial MI concentration 88, 50/50 MeOH/Water, 40° C./11 days",101%
